In patent publication US20040232089A1, “Biocidal compounds for treating water” (VANETTA S.p.A., priority 2003, published 2004):

What was measured:
Micrococcus sp. AE11 = assay: Microdilution broth MIC/MBC; type: cell-based; settings: 24 h at 25° C., dark
Protocol: (§1) b) Serial dilution test: the antibiotic activity is determined quantitatively by using the known sensitivity of a test strain towards an antibiotic which is expressed numerically as the minimal inhibitory concentration (MIC) and the minimal bactericidal concentration (MBC).
(§2) Procedure: serial dilutions of the antibiotic to be tested are pipetted into the antibiotic broth, this is then inoculated with a defined quantity of the relevant test strain (FIG. 4).
(§3) The Minimum Inhibitory Concentration (MIC) was defined as the lowest concentration of antibiotic which prevented visual turbidity after incubation.
(§4) The Minimum Bactericidal Concentration (MBC) is defined as the lowest concentration of an antibiotic killing the majority of a bacterial inoculum (99.9%, equivalent to a thousand-fold reduction of the inoculum). Method: Following a broth dilution MIC test, from each tube in the dilution series a defined volume (20 μL) is spread onto plates without antibiotics. To minimize the carry-over effect of antibiotic from the test tubes, let the drop “dry” before the inoculum is spread over the surface (a section of the agar plate). The plates were incubate overnight (longer for slow growing bacteria) and then counted the number of colonies growing from each of the test tubes. The number of colonies corresponding to a thousand-fold reduction (MBC) can be calculated if the colony count of the start inoculum is known.
(§5) The microdilution broth method was used to evaluate the MIC and the MBC against 15 aerobic bacteria isolated from culture collection and seawater. Antimicrobial dilutions were performed using Mueller Hinton Broth supplemented with divalent cations. The tested product was dissolved in the medium to obtain a final range concentration between 0,12 to 64 mg/l.
(§6) Antimicrobial assays were performed in dark, and results were read after 24 h of incubation at 25° C. Each test towards the same indicator strain was performed in three replicates.
(§7) The assayed strains were environment isolates identified by an internal number or standard strains identified by the ATCC or NCIMB accession number.

Micrococcus sp. AD10 = assay: Microdilution broth MIC/MBC; type: cell-based; settings: 24 h at 25° C., dark
Protocol: as §1, §2, §3, §4, §5, §6, §7

[1] = tested on: Bacillus licheniformis NCIMB 1525; assay: Microdilution broth MIC/MBC; type: cell-based; settings: 24 h at 25° C., dark
Protocol: as §1, §2, §3, §4, §5, §6, §7

Vibrio sp. AE7 = assay: Microdilution broth MIC/MBC; type: cell-based; settings: 24 h at 25° C., dark
Protocol: as §1, §2, §3, §4, §5, §6, §7

[2] = tested on: Escherichia coli ATCC 25922; assay: Microdilution broth MIC/MBC; type: cell-based; settings: 24 h at 25° C., dark
Protocol: as §1, §2, §3, §4, §5, §6, §7

[3] = tested on: Pseudomonas putida NCIMB 1960; assay: Microdilution broth MIC/MBC; type: cell-based; settings: 24 h at 25° C., dark
Protocol: as §1, §2, §3, §4, §5, §6, §7

Vibrio sp. AD18 = assay: Microdilution broth MIC/MBC; type: cell-based; settings: 24 h at 25° C., dark
Protocol: as §1, §2, §3, §4, §5, §6, §7

[4] = tested on: Pseudomonas elongata NCIMB 1141; assay: Microdilution broth MIC/MBC; type: cell-based; settings: 24 h at 25° C., dark
Protocol: as §1, §2, §3, §4, §5, §6, §7

Vibrio sp. CH45 = assay: Microdilution broth MIC/MBC; type: cell-based; settings: 24 h at 25° C., dark
Protocol: as §1, §2, §3, §4, §5, §6, §7

[5] = tested on: Bacillus subtilis ATCC 10774; assay: Microdilution broth MIC/MBC; type: cell-based; settings: 24 h at 25° C., dark
Protocol: as §1, §2, §3, §4, §5, §6, §7

[6] = tested on: Pseudomonas aeruginosa ATCC 10145; assay: Microdilution broth MIC/MBC; type: cell-based; settings: 24 h at 25° C., dark
Protocol: as §1, §2, §3, §4, §5, §6, §7

Corynebacterium sp. CT15 = assay: Microdilution broth MIC/MBC; type: cell-based; settings: 24 h at 25° C., dark
Protocol: as §1, §2, §3, §4, §5, §6, §7

[7] = tested on: Vibrio parahaemolyticus AD19; assay: Microdilution broth MIC/MBC; type: cell-based; settings: 24 h at 25° C., dark
Protocol: as §1, §2, §3, §4, §5, §6, §7

Aeromonas sp. CH34 = assay: Microdilution broth MIC/MBC; type: cell-based; settings: 24 h at 25° C., dark
Protocol: as §1, §2, §3, §4, §5, §6, §7

[8] = tested on: Staphylococcus aureus ATCC 25923; assay: Disk diffusion test (Kirby-Bauer); type: cell-based; settings: 100 μg MNB disk, 24 hours in the dark
Protocol: a) Kirby-Bauer assay was carried out after 24 hours in the dark.
In the disk diffusion susceptibility test, paper disks containing known amounts of MNB are placed on the surface of an agar plate that has been inoculated confluently with a standardized suspension of an indicator bacterial strain. The antimicrobial agent diffuses into the medium causing a zone of inhibition of growth of the strain around the disk corresponding to the susceptibility of the strain to that agent. Interpretative zone diameters have been established to permit classifying an isolate as belonging to the susceptible, intermediate resistance, or resistant categories of susceptibilities to an antimicrobial agent.
The disk diffusion method on agar plates was used to assess the biocide efficacy of a single concentration of MNB ([…]) against four aerobic quality control strains (Pseudomonas aeruginosa ATCC10145, Pseudomonas elongata NCIMB 1141, Bacillus subtilis ATCC 10774 and Staphylococcus aureus ATCC 25923).
Test results are summarised in Table 5 and represent the size of the inhibition halos in millimetres after contact with 100 μg MNB (Disk diffusion method).

[9] = tested on: nauplii of Artemia salina; assay: Artemia efficacy test
Protocol: This efficacy test was carried out by using nauplii of Artemia salina (Crustacea: Anacostraca).
Cysts reactivation has been carried out 24 hours before the execution of tests. […] Beakers, hermetically closed and aerated with pre-filtered air (0,22 μm), were incubated for 24 hours at 25° C., without photoperiod. For the tests E3 developing stage nauplii were employed (24 hours after cysts reactivation). Nauplii were divided from not-opened cysts by exploiting their positive fototactism: a light beam is placed near the beaker, obtaining a considerable concentration of organisms, that can be taken by using a Pasteur pipette. The following MNB concentrations have been tested: 0-0.05-0.1-0.5-1-5-10 ppm (mg/L). These solutions have been prepared immediately before carrying out the tests using natural filtered (0.22 μm) sea water (NFSW). For tests, multiwell plates (25 wells) have been used, each well has a capacity of 4 ml. In the first column there was the control solution (water without product), and in the following the different concentrations in increasing order. In each well about 20-25 individuals were added, each concentration was repeated in four replicates. Multiwell plates, hermetically closed with parafilm and lid, were incubated at dark for 24-48 hours at 25° C. […] Larvae were considered dead when there was completely no movement for 10 seconds.
Mortality percentage was calculated as the mean of the four replicates for each concentration. Data were analysed by using the Probits method, in order to calculate the lethal concentration for the 50% of the population (LC50).

[10] = Photo-degradability under daylight and UV; type: physicochemical; settings: 10 ppm in drinking water (pH 6,5-7,5)
Protocol: Similarly, the same behaviour is confirmed when evaluating the photo-degradability under daylight and UV (the irradiation test is carried out on a solution of 10 ppm in drinking water (pH 6,5-7,5)).

[11] = tested on: Mytilus galloprovincialis; assay: Mussels efficacy test (trocophora and veliger larvae); type: in vivo; settings: after 24 hours
Protocol: Mussels are bivalve shellfish that grow quickly and profusely. They have two identical, convex shells. These shells are elongate, triangular and joined by a rubbery hinge ligament on the upper side. There are three main periods in the Mytilus galloprovincialis life cycle: the larval, juvenile, and adult stages. The larvae are planktonic (float in water column) during their initial three life stages: trochophore, veliger, and pediveliger.
Efficacy tests were carried out by using two larval stages of this organism: trocophora and veliger. Adult specimens of this organism were collected and transferred into our laboratories, where they were cleaned from debris, and put in single 200 ml beakers, with […] filtered natural sea-water. Through a thermal shock, sexual products (eggs and sperma) were obtained. Fertilized eggs (about 300.000) were filtered and put in 1000 ml beakers, with […] filtered natural sea-water. Cultures were maintained at 20° C., with a photoperiod of 16:8 light:dark. After the first 24 hours post-fertilization, trocophora stage is present. Larvae were reared and fed with a planktonic alga, Pavlova lutheri, every day they were filtered, and water was changed. Veliger stage is reached about 48-72 hours after fertilization.

Q: With `CC1(S(=O)(=O)O)CC(=O)c2ccccc2C1=O.NC(=O)c1cccnc1` (stereo not shown) [MNB, menadione nicotinamide bisulphite] as the molecule, how does the MBC (Micrococcus sp. AE11) read?
A: 16 mg/L

Q: And the MIC (Micrococcus sp. AE11)?
A: 8 mg/L

Q: What about the MBC (Micrococcus sp. AD10) of the same molecule?
A: 32 mg/L

Q: And the MIC (Micrococcus sp. AD10)?
A: 16 mg/L

Q: What about the MBC [1] of the same molecule?
A: 32 mg/L

Q: And the MIC [1]?
A: 16 mg/L

Q: And the MBC (Vibrio sp. AE7)?
A: 64 mg/L

Q: And the MIC (Vibrio sp. AE7)?
A: 32 mg/L

Q: What about the MBC [2] of the same molecule?
A: >64 mg/L

Q: And the MIC [2]?
A: >64 mg/L

Q: What about the MBC [3] of the same molecule?
A: >64 mg/L

Q: What about the MIC [3] of the same molecule?
A: >64 mg/L

Q: What about the MBC (Vibrio sp. AD18) of the same molecule?
A: 32 mg/L

Q: What about the MIC (Vibrio sp. AD18) of the same molecule?
A: 16 mg/L

Q: What about the MBC [4] of the same molecule?
A: 16 mg/L

Q: What about the MIC [4] of the same molecule?
A: 8 mg/L

Q: What about the MBC (Vibrio sp. CH45) of the same molecule?
A: 16 mg/L

Q: And the MIC (Vibrio sp. CH45)?
A: 16 mg/L

Q: What about the MBC [5] of the same molecule?
A: 32 mg/L

Q: And the MIC [5]?
A: 12 mg/L

Q: What about the MBC [6] of the same molecule?
A: >64 mg/L

Q: And the MIC [6]?
A: >64 mg/L

Q: What about the MBC (Corynebacterium sp. CT15) of the same molecule?
A: 16 mg/L

Q: What about the MIC (Corynebacterium sp. CT15) of the same molecule?
A: 8 mg/L

Q: What about the MBC [7] of the same molecule?
A: 4 mg/L

Q: What about the MIC [7] of the same molecule?
A: 1 mg/L

Q: What about the MBC (Aeromonas sp. CH34) of the same molecule?
A: 64 mg/L

Q: And the MIC (Aeromonas sp. CH34)?
A: 32 mg/L

Q: What about the “size of the inhibition halos” value [8] of the same molecule?
A: 20 mm

Q: What about the LC1 ([9]; 24 hours) of the same molecule?
A: 3.170 mg/L

Q: What about the LC50 ([9]; 24 hours) of the same molecule?
A: 7.625 mg/L

Q: And the LC1 ([9]; 48 hours)?
A: 0.548 mg/L

Q: And the LC50 ([9]; 48 hours)?
A: 1.840 mg/L

Q: What about the “Light exp. Tot Degr.” value [10] of the same molecule?
A: 48 h

Q: What about the “Light exp. ½ life” value [10] of the same molecule?
A: 10 h

Q: What about the LC50 ([11]; trocophorae) of the same molecule?
A: 0.108 mg/L

Q: What about the LC50 ([11]; veliger) of the same molecule?
A: 0.167 mg/L
